row,Compound,glass transition temperature [°C]
1,*CCCCCCCCCCCCNC(=O)CCCCCCCCCCCCCCC(=O)N* (repeat unit),46.00
2,*CCCCOc1ccc(/C=C2\CC/C(=C\c3ccc(OCCCCOP(=O)(O*)OC)c(OC)c3)C2=O)cc1OC (repeat unit),75.00
3,*Oc1c(Br)cc(S(=O)(=O)c2cc(Br)c(OC(*)=O)c(Br)c2)cc1Br (repeat unit),196.00
4,*CC(*)c1ccc(/C(Cc2ccccc2)=N/O)cc1 (repeat unit),111.00
5,*/C(=C(/*)c1ccc([Si](C(C)C)(C(C)C)C(C)C)cc1)c1ccccc1 (repeat unit),250.00
6,*Oc1ccc(/N=C/c2ccc(Oc3ccc(C(c4ccccc4)(c4ccccc4)c4ccc(Oc5ccc(/C=N/c6ccc(*)cc6)cc5)cc4)cc3)cc2)cc1 (repeat unit),211.00
7,*CC(*)(C)C(=O)OCCCCCCC(F)(F)C(F)(F)C(F)(F)C(F)(F)C(F)(F)C(F)(F)C(F)(F)C(F)(F)C(F)(F)C(F)(F)C(F)(F)C(F)(F)F (repeat unit),84.00
8,*c1ccc(Nc2ccc(C(c3ccc(Nc4ccc(S(*)(=O)=O)cc4)cc3)(C(F)(F)F)C(F)(F)F)cc2)cc1 (repeat unit),145.00
9,*C(=O)Nc1cccc(NC(=O)c2cccc(NC(=O)c3ccc(-c4nc5cc(*)ccc5[nH]4)cc3)c2)c1 (repeat unit),292.00
10,*Oc1ccc(OC(=O)c2cccc(Sc3ccc(OC(=O)c4ccc(C(=O)Oc5ccc(Sc6cccc(C(*)=O)c6)cc5)cc4)cc3)c2)cc1C (repeat unit),106.50
11,*Oc1ccc(NC(=O)CCCCCCCCC(=O)Nc2ccc(*)cc2)cc1 (repeat unit),160.00
12,*OC(=O)OCCCCCCCCCCOC(=O)OC1COC2C(*)COC12 (repeat unit),6.50
13,*CC(OCC(C)C)C1C(=O)OC(=O)C1* (repeat unit),145.00
14,*CCCCCOC(=O)NCC(F)(F)C(F)(F)C(F)(F)C(F)(F)CNC(=O)O* (repeat unit),33.00
15,*Oc1c(-c2ccccc2)cc(Cc2cc(-c3ccccc3)c(OC(=O)CCCCCCCCC(*)=O)c(-c3ccccc3)c2)cc1-c1ccccc1 (repeat unit),92.00
16,*CCCCCCCCCCCCCCCCCCCCC(*)COCCOCCOCCOCCOCc1ccc2ccc3cccc4ccc1c2c34 (repeat unit),-21.00
17,*/C=C(/*)CCCOc1ccc(OC(=O)c2ccc(OC)cc2)cc1 (repeat unit),20.00
18,*c1ccc(-c2ccc(N(c3ccc(OC)cc3)c3ccc4ccc(N(*)c5ccc(OC)cc5)cc4c3)cc2)cc1 (repeat unit),232.00
19,*c1ccc2oc(-c3ccc(Oc4ccc(C(c5ccc(Oc6ccc(-c7nc8cc(C(*)(C(F)(F)F)C(F)(F)F)ccc8o7)cc6)cc5)(C(F)(F)F)C(F)(F)F)cc4)cc3)nc2c1 (repeat unit),255.00

row,Compound,glass transition temperature [°C]
1,*c1sc(*)c(CCCCCCN(CC)c2ccc(/N=N/c3ccc([N+](=O)[O-])cc3)cc2)c1CCCCCC (repeat unit),17.00
2,*/C=C(/*)C(CCCCC)[Si](C)(C)C (repeat unit),170.00
3,*c1ccc(OCCCCCCCCCCCOC(=O)CCCCC(=O)OCCCCCCCCCCCOc2ccc(-c3nnc(*)s3)cc2)cc1 (repeat unit),69.00
4,*Nc1ccc(C(c2ccc(NC(=O)c3ccc(C(*)=O)cc3)cc2)(P2(=O)Oc3ccccc3-c3ccccc32)P2(=O)Oc3ccccc3-c3ccccc32)cc1 (repeat unit),245.00
5,*Oc1ccc(S(=O)(=O)c2ccc(Oc3ccc(/N=C/c4ccc(*)cc4)cc3)cc2)cc1 (repeat unit),110.00
6,*Oc1ccc(C(=O)OCCCCOC(=O)c2ccc(*)cc2)cc1 (repeat unit),38.00
7,*Oc1ccc(Oc2ccc(C(=O)Nc3ccc(Oc4ccc(-c5ccc(Oc6ccc(NC(=O)c7ccc(*)cc7)cc6)cc5)cc4)cc3)cc2)cc1-c1ccccc1 (repeat unit),232.00
8,*CCCCCCN(CC(F)(F)C(F)(F)C(F)(F)C(F)(F)C(F)(F)C(F)(F)C(F)(F)F)C(=O)CCCCC(=O)N(*)CC(F)(F)C(F)(F)C(F)(F)C(F)(F)C(F)(F)C(F)(F)C(F)(F)F (repeat unit),119.40
9,*CCN(*)C(=O)c1c(F)c(F)cc(F)c1F (repeat unit),122.00
10,*CC(*)(C)C(=O)OCCCCCCOc1ccc(OC(=O)c2ccc(OCCCCCC)cc2)cc1 (repeat unit),16.00
11,*CCC/C=C(/*)c1ccc(Cl)cc1 (repeat unit),16.00
12,*c1ccc(-c2ccc(-c3ccc([Si](*)(CCCC)CCCC)s3)s2)s1 (repeat unit),30.00
13,*CC(*)N1CCCC1=S (repeat unit),80.00
14,*Nc1cc(NC(=O)c2ccccc2C(*)=O)cc(-c2nnc(-c3ccccn3)o2)c1 (repeat unit),90.00
15,*CC(*)c1ccc(C(C)=O)cc1 (repeat unit),115.50
16,*CC(*)C(=O)Oc1ccccc1C (repeat unit),51.50
17,*CC(*)(C)C(=O)OCCCCC(F)(F)C(F)(F)C(F)(F)C(F)(F)F (repeat unit),23.00
18,*CC(*)C(=O)OCCSC (repeat unit),-60.00
19,*CC(*)OCCOc1ccc(/N=N/c2ccc([N+](=O)[O-])cc2)cc1 (repeat unit),54.00

# Now from value to compound:
row,glass transition temperature [°C],Compound
1,206.00,*Oc1cc(C(C)(C)C)c(Oc2ccc(C(=O)c3ccc(*)cc3)cc2)cc1C(C)(C)C (repeat unit)
2,252.00,*C(=O)Nc1ccc(S(=O)(=O)c2ccc(NC(=O)c3ccc(N4C(=O)c5ccc(*)cc5C4=O)cc3)cc2)cc1 (repeat unit)
3,120.00,*CC(O)COc1ccc(C2(C)CC(C)(C)c3cc(O*)ccc32)cc1 (repeat unit)
4,108.00,*c1cc(Br)c(-c2c(Br)cc(N3C(=O)c4ccc(-c5ccc6c(c5)C(=O)N(*)C6=O)cc4C3=O)cc2C(=O)OCCCCCCCCCCCC)c(C(=O)OCCCCCCCCCCCC)c1 (repeat unit)
5,266.00,*CC1(C)CC(N2C(=O)c3ccc(Oc4ccc5c(c4)C(=O)N(*)C5=O)cc3C2=O)CC(C)(C)C1 (repeat unit)
6,170.00,*Oc1ccc(Oc2ccc(C(=O)c3ccc(-c4ccc(C(=O)c5ccc(*)cc5)cc4)cc3)cc2)cc1-c1cccc(C)c1 (repeat unit)
7,222.00,*c1ccc2c(c1)C(=O)N(c1ccc(-c3ccc(N4C(=O)c5ccc(C(*)(C(F)(F)F)C(F)(F)F)cc5C4=O)c(OCCN(CC)c4ccc(C(C#N)=C(C#N)C#N)cc4)c3)cc1OCCN(CC)c1ccc(C(C#N)=C(C#N)C#N)cc1)C2=O (repeat unit)
8,103.00,*Oc1cccc(Oc2ccc(Oc3cccc(OC(=O)c4ccc(C(*)=O)cc4)c3)cc2)c1 (repeat unit)
9,254.00,*CC(=O)Nc1ccc(Oc2c(F)c(F)c(Oc3ccc(NC(=O)c4ccc5c(c4)C(=O)N(*)C5=O)cc3)c(F)c2F)cc1 (repeat unit)
10,126.00,*Oc1cccc(NC(=O)c2ccc(C(=O)Nc3ccc(Oc4ccc(C(=O)c5ccc(*)cc5)cc4)cc3)cc2)c1 (repeat unit)
11,154.00,*Oc1ccc(Oc2ccc(C(=O)c3cccc(-c4cccc(C(=O)c5ccc(*)cc5)c4)c3)cc2)cc1 (repeat unit)
12,60.00,*CCCCCCCCCCCC(=O)Oc1ccc(-c2ccc(OC(=O)c3ccc4c(c3)C(=O)N(*)C4=O)cc2)cc1 (repeat unit)
13,286.10,*c1ccc2c(c1)C(=O)N(c1c(C)cc(C(c3cccc(C(F)(F)F)c3)c3cc(C)c(N4C(=O)c5ccc(C(*)(C(F)(F)F)C(F)(F)F)cc5C4=O)c(C)c3)cc1C)C2=O (repeat unit)
14,275.50,*c1ccc(C(=O)c2ccc(-n3nc(-c4ccccc4)c4cc(Oc5ccc6c(-c7ccccc7)nn(*)c(=O)c6c5)ccc4c3=O)cc2)cc1 (repeat unit)
15,308.00,*c1ccc2c(c1)C(=O)N(c1ccc(Oc3c(C)cc(C(c4cc(C)c(Oc5ccc(N6C(=O)c7ccc(C(*)(C(F)(F)F)C(F)(F)F)cc7C6=O)cc5)c(C)c4)c4cccc5ccccc45)cc3C)cc1)C2=O (repeat unit)
16,412.00,*c1ccc(N2C(=O)c3ccc(C(=O)c4ccc5c(c4)C(=O)N(c4ccc6[nH]c(*)nc6c4)C5=O)cc3C2=O)cc1 (repeat unit)
17,263.00,*c1cccc(C(=O)Nc2ccc(Oc3ccc(S(=O)(=O)c4ccc(Oc5ccc(NC(=O)c6cccc(N7C(=O)c8ccc(-c9cccc%10c9C(=O)N(*)C%10=O)cc8C7=O)c6)cc5)cc4)cc3)cc2)c1 (repeat unit)
18,338.00,*c1cccc(N2C(=O)c3ccc(C(c4ccc5c(c4)C(=O)N(c4cccc(-n6c(=O)c7cc8c(=O)n(*)c(=O)c8cc7c6=O)c4)C5=O)(C(F)(F)F)C(F)(F)F)cc3C2=O)c1 (repeat unit)
19,167.50,*CC(O)COc1ccc(S(=O)(=O)c2ccc(O*)cc2)cc1 (repeat unit)
20,236.00,*c1ccc(Oc2ccc(Oc3ccc(N4C(=O)c5ccc(Oc6ccc(C7(c8ccc(Oc9ccc%10c(c9)C(=O)N(*)C%10=O)cc8)CCC(c8ccccc8)CC7)cc6)cc5C4=O)cc3)c(C(C)(C)C)c2)cc1 (repeat unit)
21,314.50,*C(=O)c1ccc2c(c1)C(=O)N(c1ccc(Oc3ccc(C(=O)c4cccc(C(=O)c5ccc(Oc6ccc(N7C(=O)c8ccc(*)cc8C7=O)cc6)cc5)n4)cc3)cc1)C2=O (repeat unit)
22,195.00,*C(=O)c1ccc2c(c1)C(=O)N(c1cc(OCCCCCCCC)cc(N3C(=O)c4ccc(*)cc4C3=O)c1)C2=O (repeat unit)
23,202.00,*Nc1ccc(-c2ccc(NC(=O)c3cc(NC(=O)c4ccc(NC(=O)C(C)N5C(=O)c6ccccc6C5=O)cc4)cc(C(*)=O)c3)cc2)cc1 (repeat unit)

# — the PolyMetriX glass transition set
